Laboratory results from patent US20130231472A1, “USE OF MOLECULAR MARKERS FOR THE PRECLINICAL PROFILING OF INHIBITORS OF ENZYMES HAVING HISTONE DEACETYLASE ACTIVITY” (priority 2002, published 2013).

What was measured:
RLIM = RLIM protein levels in HEK293T cells (Westernblot); format: cell-based, human; conditions: 24 hours, VPA 0.5, 1.5 or 5 mM, TSA 30, 100 or 300 nM, FIG. 12
Method: FIG. 12 (A) RLIM protein levels were determined by Westernblot analysis after treatment of HEK293T cells for 24 hours with the HDAC inhibitors VPA (0.5, 1.5, or 5 mM), TSA (30, 100 or 300 nM) or a combination of VPA (1.5 mM) and TSA (100 nM). Actin protein levels are shown as a control for equal loading. (B) RLIM protein levels were determined by Westernblot analysis after treatment of HEK293T cells for 24 hours with the HDAC inhibitor TSA (100 nM), the proteasome inhibitor ALLN (2.5 μM) or a combination of both. Actin protein levels are shown as a control for equal loading.

HDAC-2 [1] = test: Ubiquitinated HDAC-2 by His6-tagged ubiquitin / Ni2+-NTA agarose precipitation in HEK293T cells; format: cell-based, human; conditions: VPA 36 h, FIG. 10B
Method: (§1) FIG. 10: (A) The total amount of high molecular weight poly-ubiquitinated protein was not altered by VPA treatment of cells (left two lanes). The presence of ubiquitinated proteins in anti HDAC-2 immune precipitates is shown in the right part of the panel. Cells had either been left untreated, were exposed to VPA (1.5 mM, 24 h) or the proteasome inhibitor ALLN (5 μM, 24 h) or both. Ubiquitinated proteins in the precipitates were detected by Western blot analysis. For lane N a non-immune serum was used instead of the anti HDAC-2 antibody. (B) The presence of mono- and/or oligo-ubiquitinated HDAC-2 upon VPA treatment of HEK293T cells was determined by ectopic expression of His6-tagged ubiquitin followed by VPA-treatment for 36 h as indicated. The proteasome inhibitor MG-132 was added 4 h prior to analysis to enhance the accumulation of ubiquitinated proteins. Electrophoretic mobility and unaltered presence of non-ubiquitinated HDAC-2 were determined by Westernblot analysis of whole cell extracts (left panel). Ubiquitinated proteins were precipitated with Ni^2+-NTA-agarose and analyzed for presence of ubiquitinated HDAC-2 (middle panel) by Westernblot analysis of precipitates. Anti-HDAC-2 immuno-reactive bands with the expected mobility of mono- or poly-ubiquitinated HDAC-2 are indicated by a bracket.

HDAC-2 [2] = test: Ubiquitinated proteins in anti HDAC-2 immune precipitates (Westernblot against ubiquitin); format: cell-based; conditions: FIG. 10A
Text: as §1, with “Cells had either been left untreated, were exposed to VPA (1.5 mM, 24 h) or the proteasome inhibitor ALLN (5 μM, 24 h) or both.” left out, “Ubiquitinated proteins were precipitated with Ni^2+-NTA-agarose and analyzed for presence of ubiquitinated HDAC-2 (middle panel) by Westernblot analysis of precipitates.” left out

acetylated histones = test: Histone acetylation in spleen after in vivo treatment (Western blot, immunohistochemistry); design: species or system mice; conditions: for histone acetylation, spleen whole cell extracts: VPA 400 mg/kg, three and six hours, FIG. 2A
Method: FIG. 2: (A) Secondary acute promyelocytic leukemias were induced in mice as described above. (A) Leukemic mice or healthy mice (Ctrl) were then treated with placebo or VPA (400 mg/kg) for three and six hours. Mice were then sacrificed, whole cell extracts were prepared from the spleen (with >70% leukemic infiltration), and analyzed by SDS-PAGE followed by Western blot analysis using commercially available antibodies against acetylated histone H3. (B) Immunohistochemistry analysis of VPA-treated leukemic mice using a monoclonal antibody against acetylated histones.

HDAC-2 [3] = test: HDAC-2 protein levels in NIH3T3 cells; format: cell-based, mouse
leukemic spleens = test: Apoptosis in leukemic spleens after in vivo treatment (TUNEL assay); design: species or system mice; conditions: VPA 400 mg/kg every 12 hours, 48 hours; FIG. 3A
Method: FIG. 3: (A) Secondary acute promyelocytic leukemias were induced in mice as described above. Leukemic mice were then treated with placebo (Ctrl), or VPA (400 mg/kg every 12 hours). Mice were sacrificed 48 hours after beginning of treatments, and then leukemic spleens were fixed and either stained for histological examination (hematoxylin-eosyn, left panels), or analyzed for the presence of apoptotic cells (TUNEL assay, right panels). (B) Secondary leukemias were obtained as above. Mice were sacrificed when leukemic invasion of peripheral organs was >75% (spleen). Splenocytes from healthy mice (taken as control, left panel), or from leukemic mice (>75% blasts, right panel) were put in culture and then treated with VPA (1 mM) for 48 hours. At the end of the treatment, apoptosis was measured by propidium iodide staining. The sub-G1 area indicates the hypodiploid DNA peak corresponding to cells with fragmented DNA undergoing apoptosis.

HDAC-2 [4] = test: HDAC-2 pulse labeling and pulse-chase analysis in HEK293T cells; format: cell-based, human
Method: (§2) FIG. 8: Synthesis and degradation rate of HDAC-2 were analyzed by pulse metabolic labeling with ^35S-methionine and pulse-chase analyses. ^35S-labelled HDAC-2 was detected by HDAC-2 specific immune precipitation followed by SDS-PAGE separation and autoradiography. (A) Pulse labeling for 1 h was performed in F9 and HEK293T cells which had been left untreated or were pretreated with 1 mM VPA for 24 h. (B) For pulse chase analysis cells were left untreated or pretreated for 24 h with 1 mM VPA and labeled with ^35S-methionine for an additional hour in the absence or presence of VPA. After removal of ^35S-methionine and addition of non-labeled methionine the elimination of radiolabeled HDAC-2 was followed over a period of 6 h. A pulse chase analysis was also performed in HEK293T cells without VPA pretreatment and addition of VPA (indicated by the (+) row) only at the time when the chase period was started. From HEK293T cell extracts also HDAC-3 was precipitated for reference.

HDAC-3 = HDAC-3 pulse-chase analysis in HEK293T cells; format: cell-based, human; conditions: VPA pretreatment, FIG. 8B
Method: as §2

HDAC-2 mRNA = HDAC-2 mRNA levels in HEK293T cells (Northern blot); format: cell-based, human; conditions: 1 mM VPA, FIG. 7
Method: FIG. 7: F9 cells or HEK 293T cells were treated for indicated times with 1 mM VPA and the levels of HDAC-2 mRNA were determined by Northern blot analysis from 5 μg polyA^+ RNA.

With CCCC(CCC)C(=O)O [VPA, Valproic acid] the “RLIM protein levels / degradation” value (RLIM) was “without changing expression of the E3 ubiquitin ligase, RLIM”, the “gross abundance of ubiquitinated proteins (anti His-tag)” value (HDAC-2 [1]) was “not altered” and the “oligo- and polyubiquitinated HDAC-2 bands in Ni2+-NTA-agarose precipitates” value (HDAC-2 [1]; MG-132 added 4 h prior to analysis) was “much more abundant”. The “amount of ubiquitinated protein precipitated with antibody against HDAC-2” value (HDAC-2 [2]; VPA 1.5 mM, 24 h, ALLN 5 μM) was “increase the amount of this anti-ubiquitin reactive protein”, the “overall amount of cellular ubiquitinated proteins” value (HDAC-2 [2]; VPA treatment) was “moderately reduced” and the “histone acetylation, spleen whole cell extracts” value (acetylated histones; leukemic mice (>70% leukemic infiltration)) was “enhanced levels of histone acetylation”. For the same compound, the “histone acetylation by immunohistochemistry” value (acetylated histones; leukemic mice, monoclonal antibody against acetylated histones, FIG. 2B) was “dramatic increase of histone acetylation in all cells”, the “histone acetylation, spleen whole cell extracts” value (acetylated histones; normal mice) was “enhanced levels of histone acetylation” and the HDAC-2 protein levels (HDAC-2 [3]) was “reduced”. For the same compound, the “apoptotic cells in leukemic spleens (TUNEL)” value (leukemic spleens) was “induces massive apoptosis within leukemic spleens”, the “HDAC-2 synthesis rate (35S-methionine pulse labeling)” value (HDAC-2 [4]; 1 mM VPA pretreatment 24 h, FIG. 8A) was “No substantial difference in HDAC-2 synthesis rate” and the “half-life of HDAC-2 (pulse-chase)” value (HDAC-2 [4]; 1 mM VPA pretreatment 24 h, FIG. 8B) was “substantially decreased”. For the same compound, the “HDAC-2 protein degradation rate” value (HDAC-2 [4]; VPA added only at the time of chase, FIG. 8B) was “no effect”, the “degradation of HDAC-3 (pulse-chase)” value (HDAC-3) was “not affected” and the “HDAC-2 mRNA levels” value (HDAC-2 mRNA) was “no response of HDAC-2 mRNA levels”.
